# Tested on: SEM cells
# Test: cell viability relative to DMSO control; higher = less cytotoxic
# Conditions: 48 h
# In short: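 Library compounds in DMSO were pin-dosed in an 11-point threefold series (47 μM to 0.79 nM) onto leukemia cells in 1536-well plates (5 μl). Plates held 500 cells/well of NOMO1 or SEM or 1000 cells/well of P12-Ichikawa, each adapted for at least four passages in each medium. Luminescence was read with CellTiter-Glo One after 48 h at 37°C. Viability means the per-plate percentage relative to DMSO wells, using cell-free wells as background.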
# [1] = HPLM + 10% dialyzed FBS, 0.000781 µM
# [2] = HPLM + 10% dialyzed FBS, 0.00234 µM
# [3] = HPLM + 10% dialyzed FBS, 0.00702 µM
# [4] = HPLM + 10% dialyzed FBS, 0.0211 µM
# [5] = HPLM + 10% dialyzed FBS, 0.0632 µM
# [6] = HPLM + 10% dialyzed FBS, 0.19 µM
# [7] = HPLM + 10% dialyzed FBS, 0.569 µM
# [8] = HPLM + 10% dialyzed FBS, 1.71 µM
# [9] = HPLM + 10% dialyzed FBS, 5.12 µM
# [10] = HPLM + 10% dialyzed FBS, 15.4 µM
# [11] = HPLM + 10% dialyzed FBS, 46.1 µM
# [12] = RPMI 5 mM glucose + 10% FBS, 0.000781 µM
# [13] = RPMI 5 mM glucose + 10% FBS, 0.00234 µM
# [14] = RPMI 5 mM glucose + 10% FBS, 0.00702 µM
# [15] = RPMI 5 mM glucose + 10% FBS, 0.0211 µM
# [16] = RPMI 5 mM glucose + 10% FBS, 0.0632 µM
# [17] = RPMI 5 mM glucose + 10% FBS, 0.19 µM
# [18] = RPMI 5 mM glucose + 10% FBS, 0.569 µM
# [19] = RPMI 5 mM glucose + 10% FBS, 1.71 µM
# [20] = RPMI 5 mM glucose + 10% FBS, 5.12 µM
# [21] = RPMI 5 mM glucose + 10% FBS, 15.4 µM
# [22] = RPMI 5 mM glucose + 10% FBS, 46.1 µM
# [23] = RPMI 5 mM glucose + 10% dialyzed FBS, 0.000781 µM
# [24] = RPMI 5 mM glucose + 10% dialyzed FBS, 0.00234 µM
# [25] = RPMI 5 mM glucose + 10% dialyzed FBS, 0.00702 µM
# [26] = RPMI 5 mM glucose + 10% dialyzed FBS, 0.0211 µM
# [27] = RPMI 5 mM glucose + 10% dialyzed FBS, 0.0632 µM
# [28] = RPMI 5 mM glucose + 10% dialyzed FBS, 0.19 µM
# [29] = RPMI 5 mM glucose + 10% dialyzed FBS, 0.569 µM
# [30] = RPMI 5 mM glucose + 10% dialyzed FBS, 1.71 µM
# [31] = RPMI 5 mM glucose + 10% dialyzed FBS, 5.12 µM
# [32] = RPMI 5 mM glucose + 10% dialyzed FBS, 15.4 µM
# [33] = RPMI 5 mM glucose + 10% dialyzed FBS, 46.1 µM
SMILES,cell viability [1],cell viability [2],cell viability [3],cell viability [4],cell viability [5],cell viability [6],cell viability [7],cell viability [8],cell viability [9],cell viability [10],cell viability [11],cell viability [12],cell viability [13],cell viability [14],cell viability [15],cell viability [16],cell viability [17],cell viability [18],cell viability [19],cell viability [20],cell viability [21],cell viability [22],cell viability [23],cell viability [24],cell viability [25],cell viability [26],cell viability [27],cell viability [28],cell viability [29],cell viability [30],cell viability [31],cell viability [32],cell viability [33]
O=C(Cc1ccc(-c2ccc(OCCN3CCOCC3)cc2)cn1)NCc1ccccc1,96%,95.9%,106%,67.9%,28.9%,22.9%,21.6%,20.8%,18.9%,15.2%,10.5%,79.9%,84.5%,87%,57.9%,18.9%,12.9%,14.8%,13.6%,12.2%,4.65%,2.89%,93.6%,90.8%,93.8%,70.8%,30.3%,19.1%,22.4%,20%,17.3%,9.97%,7.04%
OC(=O)C(CC/1=C/C(=O)NC2=CC=CC=C12)NC(=O)C3=CC=C(Cl)C=C3 (centres undefined),94.7%,93.9%,108%,106%,108%,107%,116%,105%,121%,121%,112%,113%,109%,106%,113%,133%,112%,116%,112%,121%,126%,104%,120%,105%,126%,130%,118%,119%,135%,117%,131%,119%,120%
COC1=C2C[C@@H](C)C[C@H](OC)[C@H](O)[C@@H](C)/C=C(\C)[C@H](OC(N)=O)[C@@H](OC)/C=C/C=C(\C)C(=O)NC(=CC1=O)C2=O,122%,115%,125%,127%,117%,123%,101%,115%,100%,6.39%,5.09%,–,–,–,–,–,–,–,–,–,–,–,110%,105%,102%,108%,97.2%,95.8%,99.7%,114%,72.2%,5.54%,4.75%
Cc1csc(NC(=O)c2sc3nc4c(c(C(F)(F)F)c3c2N)CCC4)n1,82%,96.7%,93.6%,81.8%,108%,86.6%,96%,101%,81.1%,70.2%,89.3%,82.1%,99.9%,89.7%,107%,92.2%,104%,106%,97.1%,84%,73.1%,79%,84.4%,96.8%,106%,80.8%,92.9%,99.3%,89.6%,97%,76.6%,69.9%,69.9%
COC/1=C/C=C2\C(=C/C1=O)[C@H](CCC3=CC(=C(OC)C(=C23)OC)OC)NC(C)=O,32.1%,25.8%,26.1%,23.7%,18.7%,14.5%,11%,11.5%,10.1%,10%,3.47%,19%,19.2%,15.9%,15.9%,12.3%,8.3%,5.66%,6.98%,5.01%,4.81%,2.96%,20.9%,20.5%,21.6%,21.8%,10.7%,8.08%,7.02%,5.24%,4.72%,4.63%,2.48%
CCN(CC)CCCCNc1ncc2c(n1)N(C)C(=O)N(c1c(Cl)c(OC)cc(OC)c1Cl)C2,99.2%,110%,110%,111%,119%,111%,117%,114%,99.2%,48.3%,11.9%,109%,112%,117%,125%,119%,106%,126%,109%,104%,44.4%,13.2%,125%,118%,107%,114%,116%,116%,129%,104%,101%,52.3%,16.9%
NCCCCNCCCN,74.8%,80.2%,75.4%,89.7%,97.8%,99.5%,87.6%,99.2%,101%,19.7%,3.89%,107%,73.5%,97%,93.9%,108%,110%,99.1%,106%,106%,43.5%,4.26%,88%,83.7%,94.2%,75.6%,106%,103%,93.7%,99.4%,91.9%,21.4%,4.65%
COC1=CC=CC(=C1N)\C2=C\C(=O)C3=C(O2)C=CC=C3,99.8%,123%,124%,130%,129%,146%,140%,145%,148%,145%,156%,119%,112%,120%,121%,136%,136%,161%,143%,141%,177%,144%,106%,111%,134%,134%,128%,136%,145%,164%,149%,160%,155%
ClC1=CC\2=C(OC3=C(C=CC=C3)\N=C2N4CCNCC4)C=C1,110%,90.9%,114%,108%,117%,116%,112%,105%,119%,95.2%,89%,94.5%,49.6%,95%,90.4%,94.1%,93.3%,103%,99.7%,104%,89.3%,86.8%,104%,80.1%,113%,106%,117%,105%,111%,107%,119%,103%,91%
Cn1cc(/C=C2\C(=O)Nc3cccnc32)c2ccccc21,90.8%,104%,113%,117%,125%,121%,115%,111%,112%,44.8%,30%,92.5%,92.5%,122%,114%,99.3%,105%,108%,115%,98.4%,31.8%,21.9%,105%,106%,124%,101%,122%,119%,114%,119%,91.7%,30.2%,28%
O=C(Nc1ncc(SCCN2CCCC2)s1)[C@]1(c2ccc([S+](=O)([O-])C3CC3)cc2)C[C@H]1C1CCCCC1,131%,111%,120%,124%,111%,108%,109%,63.2%,98.9%,73.9%,27.5%,113%,117%,126%,123%,120%,126%,115%,71.2%,123%,114%,41.8%,129%,106%,120%,118%,117%,117%,138%,51.5%,110%,105%,52.5%
CC[C@@]1(O)C(=O)OCC/2=C1/C=C3\N(CC4=CC5=CC(=CC=C5N=C34)O)C2=O,120%,128%,120%,104%,58.8%,20.9%,18.9%,8.26%,7.73%,6.07%,5.91%,79.1%,81.5%,73%,70.2%,22.6%,11.6%,9.45%,6.47%,5.43%,3.87%,4.1%,99.6%,112%,114%,93.1%,43%,17.9%,13%,7.18%,6.51%,6.28%,4.96%
Cn1c(=O)n(-c2ccc(C(C)(C)C#N)cc2)c2c3cc(-c4cnc5ccccc5c4)ccc3ncc21,94%,104%,96%,86.7%,82%,66.3%,50.5%,38.8%,28.3%,22.1%,22.3%,68%,56.2%,64.5%,64.3%,46%,33.6%,27.7%,15%,8.98%,9.61%,6.98%,98.6%,89%,89.8%,86.1%,65.7%,57.9%,51.4%,35%,24.2%,13.2%,14.4%
CN1CCC[C@@H]1CCO[C@](C)(c1ccccc1)c1ccc(Cl)cc1,85.8%,96.5%,102%,104%,122%,108%,99.1%,115%,111%,104%,81.4%,103%,116%,118%,117%,115%,115%,112%,114%,124%,118%,97.4%,86.1%,110%,107%,104%,114%,121%,109%,116%,115%,118%,93%
CN(C)CCN(C)C(=O)c1ccc(NC(=O)Nc2ccc(-c3nc(N4CCOCC4)c4ccn(CC(F)(F)F)c4n3)cc2)cc1,104%,100%,120%,111%,88%,63.9%,65.8%,48.6%,52.7%,50.2%,54.3%,106%,81.7%,96.2%,117%,73.7%,48%,49.2%,45.9%,45.8%,43.6%,48.7%,112%,110%,112%,113%,87.6%,75.5%,63.2%,60.1%,56.6%,51%,53.3%
